Laboratory results taken from patent US7713994B2 (Wyeth LLC, priority 2005, dated 2010).
Read-outs that look alike come from different tables or passages of the source.

What was measured:
[1] = biological target: T1, cyclin D1/cdk 4 enzyme (Homo sapiens, UniProt P11802); experiment: CDK4 ELISA kinase assay (phospho-Rb ser 795 detection); assay type: biochemical
T1 construct: made in house; host or cells: Sf9 insect cells, recombinant baculovirus
How it was run: (§1)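 GST-Rb C-terminal fragment coated on wells; kinase reaction: 200 μM ATP, 0.5 mg/ml BSA, HEPES pH 7.5, 10 mM MgCl2, baculovirus/Sf9 cyclin-CDK, 30° C, 1 h. Readout anti-phospho-Rb Ser795, HRP, TMB, A450. Test compound 10 ug/ml final.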

[2] = biological target: T2, cyclin E/CDK2 enzyme (Homo sapiens, UniProt P24941); experiment: CDK2 ELISA kinase assay (phospho-Rb ser 795 detection); assay type: biochemical
T2 construct: made in house; host or cells: Sf9 insect cells, recombinant baculovirus
How it was run: as §1

[3] = biological target: T3, cyclin B/CDK1 enzyme (Homo sapiens, UniProt P06493); experiment: CDK1 ELISA kinase assay (phospho-Rb ser 795 detection); assay type: biochemical
T3 construct: purchased New England BioLabs; host or cells: Sf9 insect cells, recombinant baculovirus
How it was run: as §1

[4] = system: BT474; experiment: Cytotoxicity assay (SRB), BT474; assay type: cell-based
How it was run: (§2)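 Growth inhibition, SRB method: 3-day continuous compound exposure for HCT-116, LoVo and MCF-7 and 6-day exposure for BT474. Absorbance at 540 nm reflects surviving cell protein relative to controls.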

[5] = system: HCT-116; experiment: Cytotoxicity assay (SRB), HCT-116; assay type: cell-based; settings: HCT116 cells, SRB, read-out: In Vitro Cellular Activity IC50 HCT116
How it was run: as §2

[6] = system: LoVo; experiment: Cytotoxicity assay (SRB), LoVo; assay type: cell-based; settings: LoVo cells, SRB, read-out: In Vitro Cellular Activity IC50 LOVO
How it was run: as §2

[7] = system: MCF-7; experiment: Cytotoxicity assay (SRB), MCF-7; assay type: cell-based; settings: MCF-7 cells, SRB, read-out: In Vitro Cellular Activity IC50 MCF-7
How it was run: as §2

[8] = In Vitro Enzyme Assay, cyclin D1/cdk 4, read-out: CDK4 IC50
[9] = In Vitro Enzyme Assay, cyclin E/CDK2, read-out: CDK2 IC50
[10] = In Vitro Enzyme Assay, cyclin B/CDK1, read-out: CDK1 IC50
[11] = BT474 cells, 6 days, SRB; read-out: In Vitro Cellular Activity IC50 BT474
[12] = In Vitro Enzyme Assays, 200 μM ATP, read-out: CDK4 IC50
[13] = In Vitro Enzyme Assays, read-out: CDK2 IC50
[14] = In Vitro Enzyme Assays, read-out: CDK1 IC50
[15] = Homo sapiens, BT-474, 144 h, BT474 cells, SRB, 6 days; read-out: In Vitro Cellular Activity IC50 BT474
[16] = Homo sapiens, HCT-116, 72 h, three days
[17] = Homo sapiens, LoVo, 72 h, three days
[18] = Homo sapiens, MCF7, 72 h, three days
[19] = Homo sapiens, BT-474, 144 h, BT474 cells, 6 days, SRB; read-out: In Vitro Cellular Activity IC50 BT474
[20] = Homo sapiens, HCT-116, 72 h, 3 days
[21] = Homo sapiens, LoVo, 72 h, 3 days
[22] = Homo sapiens, MCF7, 72 h, 3 days

T1 sequence (P11802 whole entry, species assumed): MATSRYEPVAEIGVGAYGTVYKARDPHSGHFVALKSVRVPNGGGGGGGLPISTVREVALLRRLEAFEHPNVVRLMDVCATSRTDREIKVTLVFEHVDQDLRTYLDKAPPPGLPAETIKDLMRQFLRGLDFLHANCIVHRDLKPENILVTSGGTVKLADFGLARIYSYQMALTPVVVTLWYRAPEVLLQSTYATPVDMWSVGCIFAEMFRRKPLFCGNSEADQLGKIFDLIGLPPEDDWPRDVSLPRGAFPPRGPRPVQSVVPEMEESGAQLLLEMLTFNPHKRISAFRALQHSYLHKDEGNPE
T1 sequence (P24385 whole entry partner, species assumed): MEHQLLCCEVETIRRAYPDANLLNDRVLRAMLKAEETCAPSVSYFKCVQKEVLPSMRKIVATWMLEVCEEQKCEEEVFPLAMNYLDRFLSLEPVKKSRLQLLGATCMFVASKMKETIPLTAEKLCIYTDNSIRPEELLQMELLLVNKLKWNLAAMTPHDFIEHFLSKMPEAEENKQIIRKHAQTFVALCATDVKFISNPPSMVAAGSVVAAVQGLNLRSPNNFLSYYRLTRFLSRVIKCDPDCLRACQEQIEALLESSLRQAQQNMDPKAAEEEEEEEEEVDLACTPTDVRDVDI
T3 sequence (P06493 whole entry): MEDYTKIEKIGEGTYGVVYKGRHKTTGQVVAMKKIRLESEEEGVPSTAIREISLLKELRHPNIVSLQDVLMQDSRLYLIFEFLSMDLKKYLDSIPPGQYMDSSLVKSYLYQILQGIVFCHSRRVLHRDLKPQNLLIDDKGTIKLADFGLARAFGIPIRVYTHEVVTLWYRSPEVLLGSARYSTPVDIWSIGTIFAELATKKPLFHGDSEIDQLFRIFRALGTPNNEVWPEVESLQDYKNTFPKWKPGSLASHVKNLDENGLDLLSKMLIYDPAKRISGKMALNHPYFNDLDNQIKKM
T3 sequence (P14635 whole entry partner): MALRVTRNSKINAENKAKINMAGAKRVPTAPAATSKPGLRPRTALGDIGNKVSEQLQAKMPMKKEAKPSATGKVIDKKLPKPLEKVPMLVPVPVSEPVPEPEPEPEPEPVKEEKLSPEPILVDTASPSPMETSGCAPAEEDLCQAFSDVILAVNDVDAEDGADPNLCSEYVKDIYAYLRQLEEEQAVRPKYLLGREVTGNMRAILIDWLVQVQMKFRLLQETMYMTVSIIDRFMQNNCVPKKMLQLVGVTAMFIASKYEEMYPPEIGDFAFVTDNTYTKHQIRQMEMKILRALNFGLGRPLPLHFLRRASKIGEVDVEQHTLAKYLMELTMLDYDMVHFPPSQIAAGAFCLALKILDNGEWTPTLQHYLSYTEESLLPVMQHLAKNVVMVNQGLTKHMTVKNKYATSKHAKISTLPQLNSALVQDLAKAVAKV

Molecule	IC50 [1, 12] [µM]	IC50 [2, 13] [µM]	IC50 [3, 14] [µM]	IC50 [4, 15] [µM]	IC50 [5, 16] [µM]	IC50 [6, 17] [µM]	IC50 [7, 18] [µM]	IC50 [4, 19] [µM]	IC50 [5, 20] [µM]	IC50 [6, 21] [µM]	IC50 [7, 22] [µM]	further results
6-Benzofuran-2-yl-4-[(3,4-dihydroxy-benzylamino)-methylene]-4H-isoquinoline-1,3-dione [Example 643]	–	–	–	–	–	–	–	–	–	–	–	IC50 [1, 8]: 3.5 µM; IC50 [2, 9]: > 50 µM; IC50 [3, 10]: > 50 µM; IC50 [4, 11]: 13.4 µM; IC50 ([5]; 3 days): 14.9 µM; IC50 ([6]; 3 days): 11.7 µM; IC50 ([7]; 3 days): 9.2 µM
6-Bromo-4-[(4-methoxy-phenylamino)-methylene]-1,4-dihydro-2H-isoquinolin-3-one & 8-Bromo-4-[(4-methoxy-phenylamino)-methylene]-1,4-dihydro-2H-isoquinolin-3-one [Example 844]	–	–	–	–	–	–	–	–	–	–	–	IC50 [1, 8]: 34.7 µM; IC50 [2, 9]: > 50 µM; IC50 [3, 10]: > 50 µM; IC50 [4, 11]: 27.1 µM; IC50 ([5]; 3 days): 28 µM; IC50 ([6]; 3 days): 26.7 µM; IC50 ([7]; 3 days): 26.1 µM
6-Bromo-4-[(4-pyrrolidin-1-ylmethyl-phenylamino)-methylene]-1,4-dihydro-2H-isoquinolin-3-one & 8-Bromo-4-[(4-pyrrolidin-1-ylmethyl-phenylamino)-methylene]-1,4-dihydro-2H-isoquinolin-3-one [Example 846]	–	–	–	–	–	–	–	–	–	–	–	IC50 [1, 8]: 2.5 µM; IC50 [2, 9]: > 50 µM; IC50 [3, 10]: > 50 µM; IC50 [4, 11]: 10.7 µM; IC50 ([5]; 3 days): 2.6 µM; IC50 ([6]; 3 days): 4.8 µM; IC50 ([7]; 3 days): 4.9 µM
6-Bromo-4-{[4-(4-methyl-piperazin-1-yl)-phenylamino]-methylene}-1,4-dihydro-2H-isoquinolin-3-one & 8-Bromo-4-{[4-(4-methyl-piperazin-1-yl)-phenylamino]-methylene}-1,4-dihydro-2H-isoquinolin-3-one [Example 845]	–	–	–	–	–	–	–	–	–	–	–	IC50 [1, 8]: 2.3 µM; IC50 [2, 9]: > 50 µM; IC50 [3, 10]: > 50 µM; IC50 [4, 11]: 7.5 µM; IC50 ([5]; 3 days): 4.2 µM; IC50 ([6]; 3 days): 2.5 µM; IC50 ([7]; 3 days): 4.5 µM
CC1CN(C)[C@H](C)CN1c1ccc(N/C=C2\C(=O)NC(=O)c3ccc(I)cc32)cc1 (stereo in doubt) [Example 233, (4Z)-6-Iodo-4-[({4-[(2S,5R)-2,4,5-trimethylpiperazin-1-yl]phenyl}amino)methylene]-isoquinoline-1,3(2H,4H)-dione]	3	> 50	> 50	6.9	5	4.4	1	–	–	–	–	–
CN1CCN(CCN(C)c2ccc(NC=C3C(=O)NC(=O)c4ccc(Br)cc43)cc2)CC1 (stereo in doubt) [Example 261, (4Z)-6-Bromo-4-{[(4-{methyl[2-(4-methylpiperazin-1-yl)ethyl]amino}phenyl)amino]methylene}isoquinoline-1,3(2H,4H)-dione]	2.6	> 50	> 50	10	3	10	9.2	–	–	–	–	–
CN1CCN(CCN(C)c2ccc(NC=C3C(=O)NC(=O)c4ccc(Br)cc43)cc2)CC1 (stereo in doubt) [Example 870, (4Z)-6-Bromo-4-{[(4-{methyl[2-(4-methylpiperazin-1-yl)ethyl]amino}phenyl)amino]methylene}isoquinoline-1,3(2H,4H)-dione]	–	–	–	–	–	–	–	10.2	3	10.5	9.2	IC50 ([1]; In Vitro Enzyme Assay, read-out: CDK4 IC50): 2.6 µM; IC50 ([2]; In Vitro Enzyme Assay, read-out: CDK2 IC50): > 50 µM; IC50 ([3]; In Vitro Enzyme Assay, read-out: CDK1 IC50): > 50 µM
O=C1NC(=O)c2ccc(Br)cc2/C1=C/NCc1cccc(O)c1 [Example 46]	0.033	> 50	> 50	> 50	23	23	> 50	–	–	–	–	–
O=C1NC(=O)c2ccc(-n3cccc3)cc2/C1=C/Nc1ccc(CN2CCCC2)cc1 [Example 72]	0.19	> 50	> 50	4.1	3.4	3.4	2.6	–	–	–	–	–
O=C1NC(=O)c2ccc(Br)cc2/C1=C/NCc1cc(O)c(O)c(O)c1 [Example 79]	0.026	2.2	42.6	37.7	> 50	49.5	> 50	–	–	–	–	–
COc1ccc(CN/C=C2\C(=O)NC(=O)c3ccc(-c4ccsc4)cc32)cc1O [Example 88, (4Z)-4-{[(3-Hydroxy-4-methoxybenzyl)amino]methylene}-6-thien-3-ylisoquinoline-1,3(2H,4H)-dione]	0.002	18.3	23.3	6	3.4	2.4	9.1	–	–	–	–	–
COc1ccc(CN/C=C2\C(=O)NC(=O)c3ccccc32)cc1O [Example 98, (4Z)-4-{[(3-Hydroxy-4-methoxybenzyl)amino]methylene}isoquinoline-1,3(2H,4H)-dione]	–	7.1	> 50	16.8	17.9	19.3	24.1	–	–	–	–	IC50 ([1]; CDK4 IC50, In Vitro Enzyme Assays, 200 μM ATP): 0.21 µM

Now from value to molecule, other results behind:

IC50 [1, 12] [µM]	IC50 [2, 13] [µM]	IC50 [3, 14] [µM]	Molecule	IC50 [4, 15] [µM]	IC50 [5, 16] [µM]	IC50 [6, 17] [µM]	IC50 [7, 18] [µM]	IC50 [4, 19] [µM]	IC50 [5, 20] [µM]	IC50 [6, 21] [µM]	IC50 [7, 22] [µM]	further results
1.3	37.1	> 50	CC(O)C1CCCN1Cc1ccc(N/C=C2\C(=O)NC(=O)c3ccc(I)cc32)cc1 (single isomer, unassigned) [Example 374, 4-({4-[2-(1-Hydroxy-ethyl)-pyrrolidin-1-ylmethyl]-phenylamino}-methylene)-6-iodo-4H-isoquinoline-1,3-dione]	0.46	3.2	3.8	1	–	–	–	–	–
0.05	> 50	> 50	O=C1NC(=O)c2ccc(-c3ccsc3)cc2/C1=C/Nc1ccc(CN2CCC[C@@H]2CO)cc1 (stereo in doubt) [Example 421, 4-{[4-(2-Hydroxymethyl-pyrrolidin-1-ylmethyl)-phenylamino]-methylene}-6-thiophen-3-yl-4H-isoquinoline-1,3-dione]	–	–	–	–	2.9	2.6	2.7	3.8	–
10	31	> 50	O=C1NC(=O)c2ccc(I)cc2/C1=C/Nc1ccc(N2CCC[C@H]2CO)c(F)c1 (stereo in doubt) [Example 426, 4-{[3-Fluoro-4-(2-hydroxymethyl-pyrrolidin-1-yl)-phenylamino]-methylene}-6-iodo-4H-isoquinoline-1,3-dione]	–	–	–	–	4.5	1.6	2.2	2.8	–
2.1	> 50	> 50	O=C1CC[C@@H](CN/C=C2\C(=O)NC(=O)c3ccc(I)cc32)N1 (stereo in doubt) [Example 427, 6-Iodo-4-{[(5-oxo-pyrrolidin-2-ylmethyl)-amino]-methylene}-4H-isoquinoline-1,3-dione]	–	–	–	–	23.2	17.8	22.7	22.4	–
0.75	36.3	> 50	O=C1NC(=O)c2ccc(Br)cc2/C1=C/Nc1ccc(CN2CCC[C@H]2CO)cc1 (stereo in doubt) [Example 437, 6-Bromo-4-{[4-(2-hydroxymethyl-pyrrolidin-1-ylmethyl)-phenylamino]-methylene}-4H-isoquinoline-1,3-dione]	–	–	–	–	2.9	3.7	3.6	3.1	–
0.04	> 50	> 50	O=C1NC(=O)c2ccc(-c3cccs3)cc2/C1=C/Nc1ccc(CN2CCC[C@H]2CO)cc1 (stereo in doubt) [Example 438, 4-{[4-(2-Hydroxymethyl-pyrrolidin-1-ylmethyl)-phenylamino]-methylene}-6-thiophen-2-yl-4H-isoquinoline-1,3-dione]	–	–	–	–	2.2	1.6	1.6	1.8	–
